#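 Following 48 hours of exposure in 96-well plates, responses at five concentrations were used to interpolate endpoints linearly. TGI denotes the concentration required for complete inhibition of growth.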
# What was measured:
# Assay in all cases: NCI anticancer screen, dose series, 48 h
# MALME-3M melanoma = tested on: MALME-3M melanoma
# HCC-2998 colon = tested on: HCC-2998 colon
# OVCAR-3 ovarian = tested on: OVCAR-3 ovarian
# SK-MEL-2 melanoma = tested on: SK-MEL-2 melanoma
# BT-549 breast = tested on: BT-549 breast
# SNB-19 CNS = tested on: SNB-19 CNS
# IGROV1 ovarian = tested on: IGROV1 ovarian
# DU-145 prostate = tested on: DU-145 prostate
# NCI-H460 lung = tested on: NCI-H460 lung
# HCT-15 colon = tested on: HCT-15 colon
# SW-620 colon = tested on: SW-620 colon
# ACHN renal = tested on: ACHN renal
# 786-0 renal = tested on: 786-0 renal
# MDA-MB-435 = tested on: MDA-MB-435
# OVCAR-5 ovarian = tested on: OVCAR-5 ovarian
# RPMI-8226 leukemia = tested on: RPMI-8226 leukemia
# NCI-H226 lung = tested on: NCI-H226 lung
# SR leukemia = tested on: SR leukemia
# KM12 colon = tested on: KM12 colon
# MDA-MB-231 breast = tested on: MDA-MB-231 breast
# COLO 205 colon = tested on: COLO 205 colon
# SK-MEL-28 melanoma = tested on: SK-MEL-28 melanoma
# HCT-116 colon = tested on: HCT-116 colon
# LOX IMVI melanoma = tested on: LOX IMVI melanoma
# OVCAR-4 ovarian = tested on: OVCAR-4 ovarian
# CCRF-CEM leukemia = tested on: CCRF-CEM leukemia
# MDA-N = tested on: MDA-N
# T-47D breast = tested on: T-47D breast
# HL-60(TB) leukemia = tested on: HL-60(TB) leukemia
# K-562 leukemia = tested on: K-562 leukemia
# MCF7 breast = tested on: MCF7 breast
# HS 578T breast = tested on: HS 578T breast
# NCI-H522 lung = tested on: NCI-H522 lung
# CAKI-1 renal = tested on: CAKI-1 renal
# SNB-75 CNS = tested on: SNB-75 CNS
# HOP-62 NSCLC = tested on: HOP-62 NSCLC
# TK-10 renal = tested on: TK-10 renal
# RXF 393 renal = tested on: RXF 393 renal
# EKVX NSCLC = tested on: EKVX NSCLC
# HT29 colon = tested on: HT29 colon
# SK-MEL-5 melanoma = tested on: SK-MEL-5 melanoma
# UACC-257 melanoma = tested on: UACC-257 melanoma
# PC-3 prostate = tested on: PC-3 prostate
# UACC-62 melanoma = tested on: UACC-62 melanoma
# NCI/ADR-RES ovarian = tested on: NCI/ADR-RES ovarian
# M14 melanoma = tested on: M14 melanoma
# A549 NSCLC = tested on: A549 NSCLC
# SF-295 CNS = tested on: SF-295 CNS
# HOP-92 NSCLC = tested on: HOP-92 NSCLC
# U251 CNS = tested on: U251 CNS
# SN12C renal = tested on: SN12C renal
# SF-539 CNS = tested on: SF-539 CNS
# UO-31 renal = tested on: UO-31 renal
# A498 renal = tested on: A498 renal
# OVCAR-8 ovarian = tested on: OVCAR-8 ovarian
# NCI-H23 lung = tested on: NCI-H23 lung
# SF-268 CNS = tested on: SF-268 CNS
# MOLT-4 leukemia = tested on: MOLT-4 leukemia
# SK-OV-3 ovarian = tested on: SK-OV-3 ovarian
structure (smiles),measurement,setting,value
O=c1[nH]nc(Nc2ccc(Cl)cc2)c2nnn(C3CCCCC3)c12,TGI,MALME-3M melanoma,> 100 µM
same,TGI,HCC-2998 colon,> 100 µM
same,TGI,OVCAR-3 ovarian,> 100 µM
same,TGI,SK-MEL-2 melanoma,> 100 µM
same,TGI,BT-549 breast,> 100 µM
same,TGI,SNB-19 CNS,> 100 µM
same,TGI,IGROV1 ovarian,> 100 µM
same,TGI,DU-145 prostate,> 100 µM
same,TGI,NCI-H460 lung,> 100 µM
same,TGI,HCT-15 colon,> 100 µM
same,TGI,SW-620 colon,> 100 µM
same,TGI,ACHN renal,> 100 µM
same,TGI,786-0 renal,31.4 µM
same,TGI,MDA-MB-435,> 100 µM
same,TGI,OVCAR-5 ovarian,> 100 µM
same,TGI,RPMI-8226 leukemia,> 100 µM
same,TGI,NCI-H226 lung,> 100 µM
same,TGI,SR leukemia,43.3 µM
same,TGI,KM12 colon,> 100 µM
same,TGI,MDA-MB-231 breast,45.2 µM
same,TGI,COLO 205 colon,> 100 µM
same,TGI,SK-MEL-28 melanoma,> 100 µM
same,TGI,HCT-116 colon,> 100 µM
same,TGI,LOX IMVI melanoma,43.3 µM
same,TGI,OVCAR-4 ovarian,43.1 µM
same,TGI,CCRF-CEM leukemia,> 100 µM
same,TGI,MDA-N,> 100 µM
same,TGI,T-47D breast,> 100 µM
same,TGI,HL-60(TB) leukemia,> 100 µM
same,TGI,K-562 leukemia,> 100 µM
same,TGI,MCF7 breast,> 100 µM
same,TGI,HS 578T breast,> 100 µM
same,TGI,NCI-H522 lung,81.7 µM
same,TGI,CAKI-1 renal,51.8 µM
same,TGI,SNB-75 CNS,> 100 µM
same,TGI,HOP-62 NSCLC,> 100 µM
same,TGI,TK-10 renal,> 100 µM
same,TGI,RXF 393 renal,92.8 µM
same,TGI,EKVX NSCLC,> 100 µM
same,TGI,HT29 colon,> 100 µM
same,TGI,SK-MEL-5 melanoma,> 100 µM
same,TGI,UACC-257 melanoma,> 100 µM
same,TGI,PC-3 prostate,> 100 µM
same,TGI,UACC-62 melanoma,> 100 µM
same,TGI,NCI/ADR-RES ovarian,> 100 µM
same,TGI,M14 melanoma,> 100 µM
same,TGI,A549 NSCLC,> 100 µM
same,TGI,SF-295 CNS,> 100 µM
same,TGI,HOP-92 NSCLC,66 µM
same,TGI,U251 CNS,91 µM
same,TGI,SN12C renal,> 100 µM
same,TGI,SF-539 CNS,> 100 µM
same,TGI,UO-31 renal,> 100 µM
same,TGI,A498 renal,> 100 µM
same,TGI,OVCAR-8 ovarian,34.3 µM
same,TGI,NCI-H23 lung,> 100 µM
same,TGI,SF-268 CNS,> 100 µM
COc1cc(C=O)cc(C=Nc2ccc(Br)cc2)c1O,TGI,MALME-3M melanoma,17.2 µM
same,TGI,HCC-2998 colon,38.9 µM
same,TGI,OVCAR-3 ovarian,> 100 µM
same,TGI,SK-MEL-2 melanoma,17.6 µM
same,TGI,BT-549 breast,> 100 µM
same,TGI,SNB-19 CNS,> 100 µM
same,TGI,IGROV1 ovarian,> 100 µM
same,TGI,DU-145 prostate,> 100 µM
same,TGI,NCI-H460 lung,37.5 µM
same,TGI,HCT-15 colon,> 100 µM
same,TGI,SW-620 colon,> 100 µM
same,TGI,ACHN renal,49.4 µM
same,TGI,MDA-MB-435,32.5 µM
same,TGI,OVCAR-5 ovarian,> 100 µM
same,TGI,RPMI-8226 leukemia,21.8 µM
same,TGI,NCI-H226 lung,8.19 µM
same,TGI,SR leukemia,40.8 µM
same,TGI,KM12 colon,> 100 µM
same,TGI,MDA-MB-231 breast,37.8 µM
same,TGI,COLO 205 colon,36.3 µM
same,TGI,SK-MEL-28 melanoma,> 100 µM
same,TGI,HCT-116 colon,> 100 µM
same,TGI,LOX IMVI melanoma,29.8 µM
same,TGI,OVCAR-4 ovarian,> 100 µM
same,TGI,CCRF-CEM leukemia,27.7 µM
same,TGI,MDA-N,35.7 µM
same,TGI,MOLT-4 leukemia,62.4 µM
same,TGI,T-47D breast,> 100 µM
same,TGI,HL-60(TB) leukemia,56.8 µM
same,TGI,K-562 leukemia,> 100 µM
same,TGI,MCF7 breast,> 100 µM
same,TGI,HS 578T breast,5.26 µM
same,TGI,NCI-H522 lung,23.5 µM
same,TGI,CAKI-1 renal,42 µM
same,TGI,SNB-75 CNS,> 100 µM
same,TGI,HOP-62 NSCLC,55.9 µM
same,TGI,TK-10 renal,> 100 µM
same,TGI,RXF 393 renal,15 µM
same,TGI,EKVX NSCLC,> 100 µM
same,TGI,HT29 colon,> 100 µM
same,TGI,SK-MEL-5 melanoma,21.1 µM
same,TGI,UACC-257 melanoma,34 µM
same,TGI,PC-3 prostate,50.5 µM
same,TGI,UACC-62 melanoma,50.1 µM
same,TGI,NCI/ADR-RES ovarian,> 100 µM
same,TGI,M14 melanoma,14.2 µM
same,TGI,A549 NSCLC,> 100 µM
same,TGI,SF-295 CNS,21.1 µM
same,TGI,HOP-92 NSCLC,39.6 µM
same,TGI,SK-OV-3 ovarian,7.83 µM
same,TGI,U251 CNS,> 100 µM
same,TGI,SN12C renal,32.7 µM
same,TGI,SF-539 CNS,7 µM
same,TGI,UO-31 renal,50.6 µM
same,TGI,A498 renal,40.7 µM
same,TGI,OVCAR-8 ovarian,> 100 µM
same,TGI,NCI-H23 lung,> 100 µM
same,TGI,SF-268 CNS,27.8 µM

# Source: PubChem BioAssay (NCI)
